Series [1] concerns the target T1, ATP-dependent translocase ABCB1 (Homo sapiens, UniProt P08183). The series can be described thus: TP_TRANSPORTER: spectrofluorimetric analysis (intracellular accumulation) in K562 and K562/ADR cells. Format: functional, cell-based.
Series [2] has as its target T1, ATP-dependent translocase ABCB1. The experiment in a line: TP_TRANSPORTER: inhibition of JC-1 uptake (JC-1: ca 0.1 uM, S9788: 5 uM) in K562 and K562/ADR cells, flow cytometry. Format: functional, cell-based.

T1 sequence (P08183 whole entry): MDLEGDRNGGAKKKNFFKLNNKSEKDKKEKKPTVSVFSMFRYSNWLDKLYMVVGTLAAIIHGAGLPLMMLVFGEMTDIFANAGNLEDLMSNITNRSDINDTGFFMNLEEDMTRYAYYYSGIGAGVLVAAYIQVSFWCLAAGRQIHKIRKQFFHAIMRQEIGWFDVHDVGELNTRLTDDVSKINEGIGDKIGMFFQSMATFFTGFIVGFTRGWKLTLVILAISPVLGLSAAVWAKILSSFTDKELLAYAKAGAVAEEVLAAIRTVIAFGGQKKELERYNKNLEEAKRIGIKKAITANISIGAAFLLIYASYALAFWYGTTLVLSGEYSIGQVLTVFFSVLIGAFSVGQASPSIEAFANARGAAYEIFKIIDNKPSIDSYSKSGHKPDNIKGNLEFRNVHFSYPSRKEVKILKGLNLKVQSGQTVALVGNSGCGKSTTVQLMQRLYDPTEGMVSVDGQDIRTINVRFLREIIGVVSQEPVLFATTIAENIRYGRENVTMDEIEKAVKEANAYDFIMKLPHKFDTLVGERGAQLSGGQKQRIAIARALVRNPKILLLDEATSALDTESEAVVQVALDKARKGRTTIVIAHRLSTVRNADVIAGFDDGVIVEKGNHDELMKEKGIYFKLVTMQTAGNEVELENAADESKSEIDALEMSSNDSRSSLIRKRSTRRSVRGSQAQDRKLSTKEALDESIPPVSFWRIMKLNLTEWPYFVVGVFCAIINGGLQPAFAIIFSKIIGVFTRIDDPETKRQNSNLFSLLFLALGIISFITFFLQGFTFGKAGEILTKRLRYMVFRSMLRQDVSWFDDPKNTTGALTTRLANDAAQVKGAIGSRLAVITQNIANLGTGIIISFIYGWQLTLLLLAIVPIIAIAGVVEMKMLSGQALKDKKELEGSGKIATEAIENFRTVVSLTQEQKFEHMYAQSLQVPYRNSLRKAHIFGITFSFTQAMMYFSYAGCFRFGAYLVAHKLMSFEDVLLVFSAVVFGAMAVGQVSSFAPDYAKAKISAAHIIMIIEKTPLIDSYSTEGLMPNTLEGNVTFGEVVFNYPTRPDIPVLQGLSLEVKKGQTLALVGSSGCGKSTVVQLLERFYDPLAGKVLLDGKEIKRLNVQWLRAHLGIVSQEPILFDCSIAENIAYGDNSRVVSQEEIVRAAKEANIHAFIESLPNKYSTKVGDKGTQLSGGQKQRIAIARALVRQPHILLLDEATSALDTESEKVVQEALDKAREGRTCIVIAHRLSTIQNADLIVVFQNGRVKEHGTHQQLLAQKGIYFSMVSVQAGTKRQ

For the compound `CCN1C(=C/C=C/c2n(CC)c3cc(Cl)c(Cl)cc3[n+]2CC)N(CC)c2cc(Cl)c(Cl)cc21.[I-]`, the Activity entry in series [1] was “substrate [+]”.
In the case of `C=CCNc1nc(NCC=C)nc(N2CCC(NCC(c3ccc(F)cc3)c3ccc(F)cc3)CC2)n1`, the Activity entry in series [2] was “inhibitor [+]”.

For the origin of these results see ChEMBL document CHEMBL2074075, “Functional assay of multidrug resistant cells using JC-1, a carbocyanine fluorescent probe” (Leukemia, 1997).
